Here are results for 2 compounds from PMC6689897, “Drugging an undruggable pocket on KRAS” (Proceedings of the National Academy of Sciences of the …, 2019).

“And” between values parts separate entries of the source, which are not always exact repeats. Equal entries are not always repeated. Where two headings read alike, the source gives them in different places.

Assay in all cases: ITC
What all share (assay type): binding

The target of one assay is GDP-NRASwt (Homo sapiens, UniProt P01111, C118S). Particulars: for Kd: 25°C. On the procedure:
(§1) 80 difference spectrum. Mixtures of four fragments (each at 250 µM) were incubated in 25
(§2) 82 a mixture of GCP-KRASG12D and GDP-KRASG12V (each 4 µM). Binders were identified
(§3) 83 by comparing pre-recorded reference spectra with the STD difference spectrum.
(§4) 84 Deconvolution and confirmation of primary FBS hits obtained from STD-NMR and
(§5) 85 MST was performed using 2D 1H/15N TROSY NMR experiments(2) collected on a
(§6) 86 Bruker Avance III 600 MHz spectrometer equipped with a 5 mm z-gradient TCI cryo-
(§7) 87 probe. Samples were prepared directly before data acquisition using a Tecan Freedom
(§8) 88 Evo pipetting system and delivered by a Bruker Sample Rail to the magnet. Each sample
(§9) 89 contained either 50 µM 15N labeled GDP-KRASG12D or GCP-KRASG12D in 25 mM Tris-
(§10) 90 d11, 100 mM NaCl, 2 mM MgCl2, 0.5 mM TCEP pH 7.4 and 8% (v/v) D2O. Proteins
(§11) 91 were incubated with 500 µM fragment in a 2.5 mm NMR tube at 298K and 1%
(§12) 92 d6DMSO. Spectra were recorded with 32 transients and 64 data points in the indirect
(§13) 93 dimension. Processing and analysis were accomplished with Topspin 3.0 (Bruker
(§14) 94 BioSpin). Binders were identified by manual comparison of spectra in the presence of a
(§15) 95 fragment and the respective reference spectrum. All confirmed binders to 15N labeled
(§16) 96 GDP-KRASG12D show also chemical shift perturbations in the presence of 15N labeled
(§17) 97 GDP-KRASG12V and are therefore non-selective.
(§18) 98 Measurement of dissociation constants KD for the compounds synthesized. NMR
(§19) 99 was initially the only method that could provide K Ds for the weakly binding molecules to
(§20) 100 support compound optimization. 1H/15N SoFast HMQC experiments(3) were recorded in
(§21) 101 3mm NMR tubes (170µL filling) at a protein concentration of 70-100µM. Spectra were
(§22) 102 recorded on a Avance III 700MHz spectrometer equipped with a cryogenically cooled
(§23) 103 5mm TCI probe and 48 scans, 128 f1 increments and 2k data points in f2. Total
(§24) 104 acquisition time was 22 minutes. 4 – 6 titration points were performed w ith individual
(§25) 105 samples for each titration point made from 50mM DMSO -d6 stock solutions. Total
(§26) 106 DMSO-d6 concentration was kept constant by backfilling every sample to a total of 4%
(§27) 107 DMSO. KDs were calculated from the differences in chemical shift induced by t he small
(§28) 108 molecules upon interacting with the protein. Average chemical shifts from the 1H and 15N
(§29) 109 dimension were calculated according to the following equation:
(§30) 110 ∆δobs = √[δH2 + (α ∙δN)2] with α set to 0.14
(§31) 111 The Δδobs values at the respective ligand concentrations and the total concentration
(§32) 112 of protein allow a fit to the KD value of the ligand as long as it is binding under fast
(§33) 113 exchange conditions as was the case for most of the compounds tested.(4) Usually Δδobs
(§34) 115 following equation was used to determine the individual KDs:
(§35) 116 ∆δobs = ∆δmax [([P]t + [L]t + KD) − [([P]t + [L]t + KD)2 − 4([P]t[L]t)]1/2]/2[P]t
(§36) 119 Calorimetric experiments were performed on a Microcal PEAQ-ITC calorimeter
(§37) 120 (MicroCalTM, LLC Northampton, MA). Protein solutions were measured in 20 mM
(§38) 121 HEPES, 150 mM NaCl, 3% DMSO, pH 7.5. All measurements were carried out at 25°C.
(§39) 122 Titrations were performed in inverse mode. The cell was loaded with compound solutions
(§40) 123 in the range of 10 to 100 µM. All injections were performed using an initial injection of
(§41) 124 0.5 μL followed by 19 injections of 2 μL of protein in the range of 130-500 µM. The data
(§42) 125 were analyzed with the MicroCal PEAQ-ITC analysis software package. The first data
(§43) 126 point was excluded from the analysis. Thermodynamic parameters were calculated (ΔG =
(§44) 127 ΔH - TΔS = -RTlnKB, where ΔG, ΔH and ΔS are the changes in free energy, enthalpy and
(§45) 128 entropy of binding, respectively).
(§46) 130 Protein purification, nucleotide exchange and crystallization
(§47) 131 The KRAS construct, based on uniprot identifier P01116 -2 (KRAS4-B) amino acids
(§48) 134 G12V) were expressed with an N-terminal His6-tag followed by a TEV (tobacco etch

Another assay addresses GDP-HRASwt (Homo sapiens, UniProt P01112). The settings on record: 25°C. As for the experimental part: as §1, §2, §3, §4, §5, §6, §7, §8, §9, §10, §11, §12, §13, §14, §15, §16, §17, §18, §19, §20, §21, §22, §23, §24, §25, §26, §27, §28, §29, §30, §31, §32, §33, §34, §35, §36, §37, §38, §39, §40, §41, §42, §43, §44, §45, §46, §47, §48

Another assay deals with GDP-KRASwt (Homo sapiens, UniProt P01116). Particulars: 25°C. On the procedure:
as §1, §2, §3, §4, §5, §6, §7, §8, §9, §10, §11, §12, §13, §14, §15, §16, §17, §18, §19, §20, §21, §22, §23, §24, §25, §26, §27, §28, §29, §30, §31, §32, §33, §34, §35, §36, §37, §38, §39, §40, §41, §42, §43, §44, §45, §46, §47, §48

The next assay deals with GCP-KRASG12D (Homo sapiens, UniProt P01116, G12D). On the procedure: as §1, §2, §3, §4, §5, §6, §7, §8, §9, §10, §11, §12, §13, §14, §15, §16, §17, §18, §19, §20, §21, §22, §23, §24, §25, §26, §27, §28, §29, §30, §31, §32, §33, §34, §35, §36, §37, §38, §39, §40, §41, §42, §43, §44, §45, §46, §47, §48
GCP-KRASG12D, sequence (P01116 1-169 isoform P01116-2 G12D): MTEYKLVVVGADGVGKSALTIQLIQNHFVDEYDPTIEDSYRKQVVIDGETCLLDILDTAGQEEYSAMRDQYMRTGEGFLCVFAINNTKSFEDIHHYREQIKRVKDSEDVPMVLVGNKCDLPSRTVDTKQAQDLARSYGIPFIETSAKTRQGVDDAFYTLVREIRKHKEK
In a further assay the target is GCP-KRASwt (Homo sapiens, UniProt P01116). The settings on record: for Kd: 25°C. As for the experimental part:
as §1, §2, §3, §4, §5, §6, §7, §8, §9, §10, §11, §12, §13, §14, §15, §16, §17, §18, §19, §20, §21, §22, §23, §24, §25, §26, §27, §28, §29, §30, §31, §32, §33, §34, §35, §36, §37, §38, §39, §40, §41, §42, §43, §44, §45, §46, §47, §48

Where [1] appears, read: 25°C, read-out: KD(ITC) GCP-KRASG12D.

GDP-NRASwt, sequence (P01111 1-172 C118S): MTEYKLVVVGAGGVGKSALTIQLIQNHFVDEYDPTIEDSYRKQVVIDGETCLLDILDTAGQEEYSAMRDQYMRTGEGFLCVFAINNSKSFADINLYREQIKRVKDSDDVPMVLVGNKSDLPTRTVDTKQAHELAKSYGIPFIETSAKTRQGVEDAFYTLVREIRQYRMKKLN
GCP-KRASwt, sequence (P01116 1-169 isoform P01116-2): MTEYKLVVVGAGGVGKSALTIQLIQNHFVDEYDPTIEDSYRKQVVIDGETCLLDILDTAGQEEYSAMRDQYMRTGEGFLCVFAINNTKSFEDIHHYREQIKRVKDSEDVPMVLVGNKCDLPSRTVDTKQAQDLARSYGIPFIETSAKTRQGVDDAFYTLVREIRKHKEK
GDP-HRASwt, sequence (P01112 1-166): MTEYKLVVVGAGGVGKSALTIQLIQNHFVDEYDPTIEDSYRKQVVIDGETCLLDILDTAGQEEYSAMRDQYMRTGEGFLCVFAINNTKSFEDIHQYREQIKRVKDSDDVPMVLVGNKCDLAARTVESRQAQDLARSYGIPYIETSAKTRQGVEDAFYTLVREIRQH
GDP-KRASwt, sequence (P01116 1-169 isoform P01116-2): as the sequence (P01116 1-169 isoform P01116-2) above

For the compound `Cn1cnc(Cn2ccc3ccc(CNCc4[nH]c5ccccc5c4[C@H]4NC(=O)c5ccc(O)cc54)cc32)c1` [Compound 1], the “selectivity window to inactive NRAS^wt” value at GDP-NRASwt was 5- to 10 fold. The Kd at GDP-NRASwt worked out at 8.3 µM; at GDP-HRASwt, 2.5 µM; at GDP-KRASwt it was 1.1 µM; on GCP-KRASG12D (setting [1]) it was 0.74 µM; at GCP-KRASG12D (read-out: KD GTP-KRAS^G12D as measured by ITC), 0.75 µM; at GCP-KRASwt, 7.5 µM. Further, the “selectivity of binding to GCP-KRAS^wt (active KRAS^wt)” value on GCP-KRASwt was 5- to 10 fold and 10 fold.
`CN(C)Cc1[nH]c2ccccc2c1[C@H]1NC(=O)c2ccc(O)cc21` [Compound 18]: the Kd at GDP-NRASwt is 33 µM; at GDP-HRASwt, 54 µM; on GDP-KRASwt it was 15 µM; on GCP-KRASG12D (setting [1]) it was 22 µM and 20 µM and 20.4 µM; at GCP-KRASwt, 49 µM.

By Kd is commonly meant a measure of binding affinity in units of concentration.
